Literature values as cited in paper PMC12586580 (Nature Communications, 2025).

Row | Compound | affinity for Man (Pmt2 MIR domain) | affinity for Man (Pmt3 MIR domain) | Pmt4 substrate property (in words) (Pmt4)
1 | OC[C@H]1OC(O)[C@@H](O)[C@@H](O)[C@@H]1O (stereo partly drawn) [Man, mannose] | low mM affinity | low mM affinity | 
2 | Ccw5: yeast cell wall protein 5 (Ccw5) (ASKTSTNATSSSCATPSLKD) |  |  | good Pmt4 substrate
